Experimental data published in patent publication US20100022509A1, “Inhibitors of MshC and Homologs Thereof, and Methods of Identifying Same” (priority 2006, published 2010).

Tests used:
Assay type in all cases: biochemical, M. tuberculosis
MshC [1] = biological target: T1, MshC (Mycobacterium tuberculosis, UniProt P9WJM9); assay: Metal chelation by phenanthrolines; details: 0.1-5 mM phenanthroline
T1 sequence (P9WJM9 1-414): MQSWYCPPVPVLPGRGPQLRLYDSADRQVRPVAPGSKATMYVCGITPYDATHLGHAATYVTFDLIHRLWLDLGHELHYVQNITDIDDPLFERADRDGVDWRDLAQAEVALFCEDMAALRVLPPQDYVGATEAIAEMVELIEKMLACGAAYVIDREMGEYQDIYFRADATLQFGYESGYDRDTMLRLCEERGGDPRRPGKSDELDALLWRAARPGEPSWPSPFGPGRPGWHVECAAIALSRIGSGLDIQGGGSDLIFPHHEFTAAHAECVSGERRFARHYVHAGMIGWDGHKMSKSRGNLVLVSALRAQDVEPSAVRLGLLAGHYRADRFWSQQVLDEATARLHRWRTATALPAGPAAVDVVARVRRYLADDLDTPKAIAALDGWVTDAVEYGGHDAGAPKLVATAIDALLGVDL

MshC [2] = biological target: T1, MshC; assay: Inhibition studies of MshC ligase activity (HEPES pH 7.5, HPLC); details: for inhibition of the ligase activity, in words: 80-1600 μM, 70 μM L-Cys and 50 μM GlcN-Ins; for % inhibition: 50 μM GlcN-Ins and 70 μM Cys
MshC [3] = biological target: T1, MshC
MshC [4] = biological target: T1, MshC; assay: Zn supplementation; details: 2, 10, 50 or 100 μM zinc chloride
MshC [5] = biological target: T1, MshC; assay: Coupled enzyme spectrophotometric screening assay (MshC plus pyrophosphatase, malachite green); details: 1.6 mM cysteamine, 1 μg MshC
MshC [6] = biological target: T1, MshC; assay: biochemical; details: using the HPLC assay

Compound	inhibition of the ligase activity, in words (MshC [2])	relative spec. act. (MshC [3])	% inhibition (MshC [2]; [inhibitor] 1600 μM)	also measured
c1cnc2c(c1)ccc1cccnc12 [1,10-phenanthroline]	–	–	–	effect on enzyme activity, in words (MshC [1]): no significant loss of activity
N[C@@H](CO)C(=O)O [L-serine]	very minor inhibition	≦0.008	–	% inhibition (MshC [2]; [inhibitor] 5000 μM): 15 ± 8%; activity as alternative substrate to Cys, in words (MshC [3]; 80 μM to 1.6 mM): Nor was significant activity detected
[Cl-].[Cl-].[Zn+2] [Zn^2+, zinc chloride]	–	–	–	effect on enzyme activity, in words (MshC [4]): loss in activity
NCCS [cysteamine]	–	≦0.16	65 ± 10%	rate of phosphate production in the coupled enzyme assay (MshC [5]): markedly depressed; inhibition of the reaction catalyzed by MshC, in words (MshC [6]): weak inhibitor; reduction in rate (MshC [2]; 1.6 mM): 3 fold
O=C(O)CCS [β-mercaptopropionate, β-mercaptopropionic acid]	minor inhibition	≦0.004	−20 ± 20%	–
